Series [1] concerns wild type NIH 3T3 cells. The series can be described thus: Growth inhibition of wild type NIH 3T3 cells (modified MTT assay, 48 h). In kind it is cell-based. The settings on record: Mus musculus, NIH3T3, mean ± SD of 3-5 experiments. Here is the method: (§1) Inhibition on the Growth of wild type and ras-transformed NIH 3T3 cells
(§2) The compounds of formula (I) were screened on wild type and ras-transformedNIH 3T3 cells for inhibitory activity. Screening was carried out in 96-well plate and the cells, with a density of 1500-2500 cells/well, were cultured in Dulbecco's modified Eagle's medium containing 10% fetal bovine serum at 37° C. under an atmosphere of 7.5% CO2 in air. Growth curve for each cell line was established. The DMSO solution of each compound was incubated with the cell for 48 hours. Procedure of Hansen's MTT assay method was modified for estimating the cell number (Hansen, B. M., Nielson, S. E., Berg, K. J. Immunol. Methods 1989, 119, 203.). The absorption of generated formazan's blue at l570 nm was recorded with ELISA reader. The number of surviving cells was determined from a calibration curve derived by correlating the absorption to the cell number determined from a hemacytometer. At least three experiments were carried out for each compound and IC50 was calculated using sigmoidal regression (Parellada, J., Guinea, M. J. Nat. Prod., 1995, 58, 823.). SI, the selectivity of growth inhibition of each test compound, was defined as the ratio of IC50 against wild type to IC50 against ras-transformed cell lines.

The test system of series [2] is ras-transformed NIH 3T3 cells. Briefly: Growth inhibition of ras-transformed NIH 3T3 cells (modified MTT assay, 48 h). Type of series: cell-based. The note with it: for Selective toxicity (SI, IC50 wild type/IC50 ras-transformed): IC50 wild type/IC50 ras-transformed cells; for IC50: Mus musculus, NIH3T3; for Relative activity: Ratio of the IC50 of azatyrosine to the IC50 of test compound. Here is the method: as §1, §2
On the technique in general: Tetrazolium assays rely on reduction of a dye to a coloured formazan, in cell work by metabolically active cells.

The test system of series [3] is ras-transformed tumor cells. The settings on record: relatively high concentrations up to; cited from earlier work.
For series [4], the system named is wild type cells. The settings on record: cited from earlier work.
In series [5] the test system is NIH 3T3 cells transformed by c-Ha-ras, c-Ki-ras, N-ras, or c-raf oncogene. The settings on record: cited from earlier work.
The subject of series [6] is revertant clone on nude mice. The settings on record: some of the revertant clone; cited from earlier work.
Series [7] relates to mice harboring a normal c-Ha-ras gene. The settings on record: 7,12-dimethylbenz[a]anthracene or methylnitrosourea-induced; cited from earlier work.
Setting [8] is: ras-transformed NIH 3T3, 48 hours, mean ± SD of 3-5 experiments, read-out: IC50 ras-transformed.

SMILES strings stand for the structures. Where “and” joins values, the source holds several entries; their conditions need not be identical. Identical values can stand only once. Like-named read-outs stand apart in the source and are kept apart here.

Take `C#CCNC(=O)C(Cc1ccc(OCc2ccccc2)cn1)NC(=O)OC(C)(C)C` (stereo not drawn) [Compound 10]: the IC50 (as a rule, the concentration at which inhibition is half-maximal) in series [1] turned out to be 410 ± 247 µM; in series [2] (setting [8]) it was 45.1 ± 1.65 µM. Further, the “Selective toxicity (SI, IC50 wild type/IC50 ras-transformed)” value (“Selective toxicity” for short) in series [2] was 9.0. Further, the Relative activity in series [2] (ras-transformed NIH 3T3) is on record as 165.
In the case of `CC(C)(C)OC(=O)NC(Cc1ccc(OCc2ccccc2)cn1)C(=O)N1CCCCC1` (stereo not drawn) [Compound 13], the IC50 was found to be 74.8 ± 18.7 µM in series [1] and 42.1 ± 3.9 µM in series [2] (setting [8]). Besides, the “Selective toxicity” value in series [2] was 1.8. The Relative activity in series [2] (ras-transformed NIH 3T3) worked out at 180.
For the compound `CC(C)(C)OC(=O)NC(Cc1ccc(OCc2ccccc2)cn1)C(=O)NC1CCCCC1` (stereo not drawn) [Compound 12, N-cyclohexyl 3-(5-benzyoxypyridin-2-yl)-2-t-butoxylcarbonylaminopropanamide], the IC50 in series [1] stood at 2280 ± 1760 µM; in series [2] (setting [8]), 16.1 ± 2.2 µM; in series [2] (ras-transformed NIH 3T3, read-out: IC50) it was 16.5 ± 2.2 µM. Also, the “Selective toxicity” value in series [2] is 138 and 138.5; in series [2] (listed as compound 12), 138.5. Further, in series [2] (ras-transformed NIH 3T3), the Relative activity turned out to be 458. Also, the “IC50 fold lower than that of azatyrosine” value in series [2] (ras-transformed NIH 3T3) was 458 fold.
Turning to `CC(C)(C)OC(=O)NC(Cc1ccc(OCc2ccccc2)cn1)C(=O)NC1CC1` (stereo not drawn) [Compound 11], the values for the IC50 in series [1] and in series [2] (setting [8]) were 1930 ± 899 µM and 104 ± 83.8 µM, respectively. Moreover, the “Selective toxicity” value in series [2] turned out to be 18.4. The Relative activity in series [2] (ras-transformed NIH 3T3) is given as 72.
Take `N[C@@H](Cc1ccc(O)cn1)C(=O)O` [azatyrosine, L-b-(5-hydroxy-2-pyridyl)alanine]: in series [3], the “concentration necessary for the activity” value is 1 to 2 mM. The “effect on growth of wild type cells” value in series [4] is given as “essentially no effect”. Besides, in series [5] (azatyrosine-treated transformed cells that survived), the “reversion of surviving transformed cells” value was “reverted to an apparently normal phenotype”. Besides, in series [5], the “suppression of growth of transformed NIH 3T3 cells” value is reported as “suppress the growth”. Also, the values for the IC50 in series [1] and in series [2] (setting [8]) were 10800 ± 472 µM and 7550 ± 418 µM, respectively. In addition, in series [2], the “Selective toxicity” value worked out at 1.4. The “tumorigenicity of revertant clones” value in series [6] is on record as “complete loss of tumorigenicity”. The “inhibition of induced carcinogenesis” value in series [7] was “inhibits”.
Regarding `CC(C)(C)OC(=O)NC(Cc1ccc(OCc2ccccc2)cn1)C(N)=O` (stereo not drawn) [Compound 7, 3-(5-benzyoxypyridin-2-yl)-2-t-butoxylcarbonylamino NH3], the IC50 in series [1] is 1716 ± 10.4 µM; in series [2] (setting [8]) it was 73.1 ± 41.8 µM. The “Selective toxicity” value in series [2] was 23.5. Moreover, the Relative activity in series [2] (ras-transformed NIH 3T3) stood at 103.
Consider `CC(C)(C)OC(=O)NC(Cc1ccc(OCc2ccccc2)cn1)C(=O)N1CCCC1` (stereo not drawn) [Compound 14], for which the figures for the IC50 in series [1] and in series [2] (setting [8]) were 148 ± 12.5 µM and 59.1 ± 17.8 µM, respectively. Further, the “Selective toxicity” value in series [2] worked out at 2.5. Further, the Relative activity in series [2] (ras-transformed NIH 3T3) is listed as 127.
As to `CC(C)(C)OC(=O)NC(Cc1ccc(OCc2ccccc2)cn1)C(=O)N1CCSCC1` (stereo not drawn) [Compound 15], the IC50 in series [1] turned out to be 154 ± 3.9 µM; in series [2] (setting [8]), 50.1 ± 1.04 µM. In addition, the “Selective toxicity” value in series [2] worked out at 3.1. Also, the Relative activity in series [2] (ras-transformed NIH 3T3) was found to be 150.
As for `C=CCNC(=O)C(Cc1ccc(OCc2ccccc2)cn1)NC(=O)OC(C)(C)C` (stereo not drawn) [Compound 9], the IC50 in series [1] was 213 ± 112 µM; in series [2] (setting [8]) it was 74.1 ± 15.2 µM. Also, the “Selective toxicity” value in series [2] stood at 2.9. For the same compound, the Relative activity in series [2] (ras-transformed NIH 3T3) is recorded as 102.
The matching figures for `CCCNC(=O)C(Cc1ccc(OCc2ccccc2)cn1)NC(=O)OC(C)(C)C` (stereo not drawn) [Compound 8, propyl 3-(5-benzyoxypyridin-2-yl)-2-t-butoxylcarbonylamino propanamide]: 989 ± 707 µM, 34.1 ± 0.8 µM, 28.4 and 217.

Source of the values: US5869507A, “Azatyrosine analogues” (Wang; Hui-Po, priority 1997, dated 1999).
